Data from a compilation of properties of binary mixtures (doi:10.1016/j.molliq.2016.06.018).

Assay: xn = mol fraction of the nth substance listed
Conditions: 100 kPa

CCCCCCCCN1CCCC1=O + CCCC[n+]1ccn(C)c1.O=S(=O)([N-]S(=O)(=O)C(F)(F)F)C(F)(F)F
speed of sound [m/s]
Conditions | x1 = 0.1125 | x1 = 0.2205 | x1 = 0.3048 | x1 = 0.3915 | x1 = 0.5011 | x1 = 0.5983 | x1 = 0.7076 | x1 = 0.7976 | x1 = 0.8911 | x1 = 1
298.15 K | 1234.8 | 1244.9 | 1255.2 | 1268.2 | 1288.3 | 1310.3 | 1341 | 1371.6 | 1406.7 | 1450.2
303.15 K | – | 1233.4 | 1243.4 | – | 1275.5 | 1297 | – | 1356.6 | 1390.5 | 1432.6
308.15 K | 1212.7 | 1222.1 | 1231.6 | – | – | 1283.7 | 1312.7 | 1341.5 | 1374.3 | –
313.15 K | 1201.8 | – | 1219.9 | 1231.6 | 1250 | 1270.4 | 1298.7 | 1326.5 | 1358.3 | 1398
318.15 K | 1190.9 | 1199.6 | 1208.3 | 1219.6 | 1237.5 | 1257.3 | 1284.9 | 1311.7 | 1342.4 | 1380.9
323.15 K | 1180.1 | 1188.4 | 1196.8 | 1207.6 | 1224.9 | 1244.2 | 1271.2 | 1297.1 | – | 1364

CCCC[n+]1ccn(C)c1.O=S(=O)([N-]S(=O)(=O)C(F)(F)F)C(F)(F)F + CCCCCCCCN1CCCC1=O
x2 = 0
Conditions | speed of sound [m/s]
298.15 K | 1227.9
303.15 K | 1216.8
308.15 K | 1205.8
313.15 K | 1195
318.15 K | 1184.2
323.15 K | 1173.6
